From ChEMBL document CHEMBL3421572, “Synthesis of Schiff base derivatives of 4-(2-aminoethyl)-benzenesulfonamide with inhibitory activity against carbonic anhydrase isoforms I, II, IX and XII” (Bioorg Med Chem Lett, 2015)

Key:
Carbonic anhydrase 9 = Carbonic anhydrase 9 (Homo sapiens, UniProt Q16790)
[1] = Chemical stability of the compound in HEPES buffer assessed as compound remaining at 10 mg at pH 7.4 measured at 0 hr by HPLC method; type: physicochemical; conditions: read-out: Stability
[2] = Chemical stability of the compound in HEPES buffer assessed as compound remaining at 10 mg at pH 7.4 measured at 3 hrs by HPLC method; type: physicochemical; conditions: read-out: Stability
[3] = Chemical stability of the compound in HEPES buffer assessed as compound remaining at 10 mg at pH 7.4 measured at 5 hrs by HPLC method; type: physicochemical; conditions: read-out: Stability
[4] = Chemical stability of the compound in HEPES buffer assessed as compound remaining at 10 mg at pH 7.4 measured at 10 hrs by HPLC method; type: physicochemical; conditions: read-out: Stability
[5] = Chemical stability of the compound in HEPES buffer assessed as compound remaining at 10 mg at pH 7.4 measured at 24 hrs by HPLC method; type: physicochemical; conditions: read-out: Stability
Carbonic anhydrase 1 = Carbonic anhydrase 1 (Homo sapiens, UniProt P00915)
Description: Inhibition of recombinant human cytosolic form of carbonic anhydrase-1 preincubated for 15 mins by stopped flow CO2 hydration assay

Carbonic anhydrase 12 = Carbonic anhydrase 12 (Homo sapiens, UniProt O43570)
Carbonic anhydrase 12, sequence (O43570 whole entry): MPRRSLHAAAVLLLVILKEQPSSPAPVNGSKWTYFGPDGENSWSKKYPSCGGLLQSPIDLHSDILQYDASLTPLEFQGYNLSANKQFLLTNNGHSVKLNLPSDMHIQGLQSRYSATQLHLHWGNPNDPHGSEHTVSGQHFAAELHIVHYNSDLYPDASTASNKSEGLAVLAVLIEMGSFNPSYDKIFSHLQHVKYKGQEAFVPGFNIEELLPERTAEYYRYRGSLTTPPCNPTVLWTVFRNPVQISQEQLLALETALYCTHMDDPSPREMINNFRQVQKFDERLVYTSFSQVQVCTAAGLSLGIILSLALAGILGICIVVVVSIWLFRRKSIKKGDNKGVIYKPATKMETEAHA
Description: Inhibition of recombinant human transmembrane, tumor-associated form of carbonic anhydrase-12 preincubated for 15 mins by stopped flow CO2 hydration assay

Carbonic anhydrase 1, sequence (P00915 whole entry): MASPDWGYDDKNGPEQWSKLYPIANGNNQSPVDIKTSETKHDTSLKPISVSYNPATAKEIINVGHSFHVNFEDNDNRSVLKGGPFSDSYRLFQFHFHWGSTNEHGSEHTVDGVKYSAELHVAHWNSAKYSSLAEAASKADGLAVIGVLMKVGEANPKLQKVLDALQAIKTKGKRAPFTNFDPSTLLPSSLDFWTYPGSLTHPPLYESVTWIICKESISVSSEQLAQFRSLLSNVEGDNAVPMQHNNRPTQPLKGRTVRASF

## NS(=O)(=O)c1ccc(CCNCc2ccc(OCc3ccccc3)cc2)cc1
Carbonic anhydrase 9
  Ki: 2.9 nM

## NS(=O)(=O)c1ccc(CC/N=C\c2ccccc2)cc1
Carbonic anhydrase 9
  Ki: 220 nM
[1]
  remaining at 0 h: 100%
[2]
  remaining at 3 h: 100%
[3]
  remaining at 5 h: 89%
[4]
  remaining at 10 h: 51%
[5]
  remaining at 24 h: 14%

## COc1ccc(CNCCc2ccc(S(N)(=O)=O)cc2)cc1
[1]
  remaining at 0 h: 100%
[2]
  remaining at 3 h: 100%
[3]
  remaining at 5 h: 100%
[4]
  remaining at 10 h: 100%
[5]
  remaining at 24 h: 100%
Carbonic anhydrase 1
  Ki: 4.6 nM
Carbonic anhydrase 12
  Ki: 37.7 nM

## NS(=O)(=O)c1ccc(CC/N=C\c2cc(Br)cc(Br)c2O)cc1
Carbonic anhydrase 9
  Ki: 163 nM

## NS(=O)(=O)c1ccc(CC/N=C\c2cc(Cl)cc(Cl)c2O)cc1
Carbonic anhydrase 9
  Ki: 190 nM

## CN(C)c1ccc(/C=N\CCc2ccc(S(N)(=O)=O)cc2)cc1
Carbonic anhydrase 9
  Ki: 39.1 nM
Carbonic anhydrase 1
  Ki: 453 nM
Carbonic anhydrase 12
  Ki: 3120 nM

## CCN[C@H]1C[C@H](C)S(=O)(=O)c2sc(S(N)(=O)=O)cc21 [DORZOLAMIDE]
Carbonic anhydrase 12
  Ki: 3 nM

## COc1ccc(/C=N\CCc2ccc(S(N)(=O)=O)cc2)cc1
Carbonic anhydrase 9
  Ki: 231 nM
[1]
  remaining at 0 h: 100%
[2]
  remaining at 3 h: 100%
[3]
  remaining at 5 h: 72%
[4]
  remaining at 10 h: 43%
[5]
  remaining at 24 h: 8%

## NS(=O)(=O)c1ccc(CCNCc2cc(Cl)ccc2O)cc1
Carbonic anhydrase 9
  Ki: 15.6 nM

## NS(=O)(=O)c1ccc(CC/N=C\c2cc(Cl)ccc2O)cc1
Carbonic anhydrase 9
  Ki: 106 nM

## NS(=O)(=O)c1ccc(CC/N=C\c2cc(Br)ccc2O)cc1
Carbonic anhydrase 9
  Ki: 187 nM

## NS(=O)(=O)c1ccc(CCNCc2ccccc2O)cc1
Carbonic anhydrase 9
  Ki: 3.9 nM

## NS(=O)(=O)c1ccc(CCNCc2cc(Br)cc(Br)c2O)cc1
Carbonic anhydrase 9
  Ki: 4.1 nM

## NS(=O)(=O)c1ccc(CCNCc2cc(Br)ccc2O)cc1
Carbonic anhydrase 9
  Ki: 4.3 nM

## Cc1ccc(CNCCc2ccc(S(N)(=O)=O)cc2)cc1
Carbonic anhydrase 9
  Ki: 10.2 nM

## Cc1cccc(CNCCc2ccc(S(N)(=O)=O)cc2)c1O
Carbonic anhydrase 9
  Ki: 3.7 nM

## NS(=O)(=O)c1ccc(CC/N=C\c2ccc(OCc3ccccc3)cc2)cc1
Carbonic anhydrase 9
  Ki: 230 nM

## NS(=O)(=O)c1ccc(CCNCc2ccccc2)cc1
Carbonic anhydrase 9
  Ki: 4.3 nM
[1]
  remaining at 0 h: 100%
[2]
  remaining at 3 h: 100%
[3]
  remaining at 5 h: 100%
[4]
  remaining at 10 h: 100%
[5]
  remaining at 24 h: 100%
Carbonic anhydrase 12
  Ki: 6.3 nM

## Cc1cccc(/C=N\CCc2ccc(S(N)(=O)=O)cc2)c1O
Carbonic anhydrase 9
  Ki: 295 nM

## Cc1ccc(/C=N\CCc2ccc(S(N)(=O)=O)cc2)cc1
Carbonic anhydrase 9
  Ki: 123 nM

## NS(=O)(=O)c1ccc(CC/N=C\c2ccccc2O)cc1
Carbonic anhydrase 9
  Ki: 138 nM
Carbonic anhydrase 1
  Ki: 393 nM
Carbonic anhydrase 12
  Ki: 46.8 nM
